Our source for the IC50 values is patent US11465989B2, “Guanidine compounds and use thereof” (IMMUNOMET THERAPEUTICS INC., priority 2014, dated 2022).

In one experiment the test system is A549 cells. The experiment can be described thus: Inhibition of OCR (XF Analyzer). The format is cell-based. An excerpt: The electron transfer complex in mitochondria is composed of 5 complexes. The complex I accept electrons from NADH produced from glycolysis and TCA cycle and the electrons move to complex […] and the electron is finally transferred to O2 and water molecule is generated. During the electron transfer, proton gradient is generated and the chemical gradient is a driving source to synthesize ATP at complex V. The mitochondrial inhibition of complex I indirectly assessed by measuring the oxygen consumption rate (OCR) at complex IV. […] The solution outside of cells becomes acidic (lower pH) as lactate is transported to outside of cells. OCR and Extracellular acidification rate (ECAR) are determined by XF Analyzer (Seahorse Biosciences).
A549 cells were purchased from American Type Tissue Culture Collection ([…]) and cultured in RPMI 1640 supplied with 10% fetal bovine serum (FBS) and antibiotic-antimycotic (Lifetech, CA). A549 cells were separated with 0.5% Trypsin-EDTA and 3,000 cells were plated on 1 mg/ml poly-D-lysine (Sigma, P6407) coated XF 96 well […]. A549 cells were allowed to adhere to the wells for 24 hours under the condition of temperature, 37° C. and 5% CO2 The sensor cartridge of XF Analyzer was soaked in 200 Ad of Calibrant solution (Seahorse, MA) in a clear 96-well plate at 37° C. for 24 hours. The compounds of the present invention were diluted with RPMI 1640 without FBS, transferred to A549 cells on XF 96 well plate, and incubated further for 23 hours at 37° C. and 5% CO2. After incubation, the compound solution was exchanged with pre-warmed and pH adjusted (pH7.4) XF assay media (Seahorse) supplied with 15 mM D-glucose (Sigma), 15 mM sodium pyruvate (Lifetechnologies, CA) and 4 mM L-glutamine (Lifetechnologies, CA). The compounds of present invention were prepared in XF Assay media and added to the assay plate. The assay plate was equilibrated in XF Analyzer for 1 hour, and the reading were started by sensor cartridge. The cytotoxicity assay was followed using Cyquant (Lifetechnologies, CA) in order to calibrate the inhibition with cytotoxicity of compounds. The concentrations of the compounds were tested at […] and IC50 value was obtained from the inhibited values. That is, from OCR inhibition values at each concentration of the compound, IC50 was calculated according to Prism's dose response curve fitting.
In Table 1, the levels of OCR IC50 are evaluated by the following.

A further experiment concerns SK-MEL-28 cells. The experiment can be described thus: Cytotoxicity in low glucose condition (MTT). The format is cell-based. The conditions noted are these: SK-MEL-28, 0.75 mM glucose, 72 hours, read-out: SK-MEL-28 0.75 mM glucose Cell viability (IC50 ia). The text has this: The inhibition of oxidative phosphorylation (OXPHOS) is not cytotoxic to cells in normal glucose condition, because it is postulated that normal cells have compensatory mechanism under energy stress conditions such as low glucose. However OXPHOS inhibitors show cytotoxic effect on cells in the glucose deprived condition (BirsoyK, 2014). The glucose deprived condition is observed in tumor microenvironment potentially due to poor angiogenesis. Therefore the OXPHOS inhibitors may show anti-cancer effect on cancer cells in low glucose condition that may depict tumor microenvironment.
The compounds of the present invention were evaluated their cytotoxicity in SK-MEL-28, melanoma with 0.75 mM glucose supplement. The cytotoxic effect is compared with the cytotoxicity caused by phenformin. The cytotoxicity in low glucose condition is correlated with inhibition of oxygen consumption in mitochondria.
SK-MEL-28 (HTB-72) is a melanoma cell line obtained from ATCC (MA) and cultured in RPMI 1640 media (Lifetechnologies, CA) with supplement of 10% FBS and antibiotic-antimycotic (Lifetechnologies, CA). RPMI 1640 (-Glucose) was used to prepare low glucose media and 0.75 mM glucose was supplied with D-(+)-glucose solution from Sigma. SK-MEL-28 cells were separated from culture plate using 0.5% trypsin-EDTA and 5,000 cells were plated in 96-well plate with low glucose media. After incubation at 37° C. for 24 hour, 5% CO2, the cells were treated with the compounds of present invention in FBS-free media for 72 hours. The cytotoxicity was measured by the MTT (AMRESCO, OH) assay. NADH-dependent cellular oxidoreductase reduces MTT to its insoluble […] with purple color. The enzyme depends on cell number or energy state of cells. 10 μl of 5 mg/ml MIT solution was added to each well of the assay plate and skip the well for blank. The plate was incubated at 37° C. and 5% CO2 for 2 hours. The MTT solution was removed from each well and 100 μl of DMSO was added. The plate was read by VICTOR X3 Multilabel Counter at the wavelength of 550 nm. In Table 2, the levels of IC50 are evaluated by the following criteria.

Structures are written as SMILES. Structures can show the parent of a compound that is named as a salt. Where two headings read alike, the source gives them in different places.

Turning to `Cc1ccc(CNC(=N)NC(=N)N)c(C)c1` [Example 18, N-1-(2,4-dimethyl)benzylbiguanide hydrochloride], the IC50 in the experiment on A549 cells (Homo sapiens, A549, 24 h) is more than 5 µM; with SK-MEL-28 cells (Homo sapiens) it was more than 10 µM.

In the case of `Cc1ccccc1CCNC(=N)NC(=N)N` [Example 22, N-1-(2-methyl)phenethylbiguanide hydrochloride], the IC50 is less than 2 µM in the experiment with A549 cells (Homo sapiens, A549, 24 h) and more than 10 µM in the experiment on SK-MEL-28 cells (Homo sapiens).

For the compound `N=C(N)NC(=N)NCCc1ccccc1Br` [Example 26, N-1-(2-bromo)phenethylbiguanide hydrochloride], the IC50 in the experiment on A549 cells (Homo sapiens, A549, 24 h) is less than 2 µM; in the experiment with SK-MEL-28 cells (Homo sapiens), less than 5 µM.

`N=C(N)NC(=N)NCCc1ccc2c(c1)CCCC2` [Example 30, N-1-(2-(5,6,7,8-tetrahydronaphthalen-2-yl)ethyl)biguanide hydrochloride]: the IC50 in the experiment on A549 cells (A549, 24 hrs) was more than 5 µM; in the experiment with SK-MEL-28 cells it was less than 5 µM.

For `N=C(N)NC(=N)NCc1ccc(Cl)c(Cl)c1` [Example 37, hydrochloride], the IC50 was more than 5 µM in the experiment on A549 cells (Homo sapiens, A549, 24 h) and 5 to 10 µM in the experiment on SK-MEL-28 cells (Homo sapiens).

As for `N=C(N)NC(=N)NCCc1ccc2c(c1)CCCC2` [Example 44, N-1-2-(5,6,7,8-tetrahydronaphthalen-2-yl)ethylbiguanide hydrochloride], the IC50 in the experiment on A549 cells (Homo sapiens, A549, 24 h) is 2 to 5 µM; in the experiment on SK-MEL-28 cells (Homo sapiens), less than 5 µM.

Consider `N=C(N)NC(=N)NCc1ccc2c(c1)CCCC2` [Example 48, N-1-2-(5,6,7,8-tetrahydronaphthalen-2-yl)methanebiguanide hydrochloride], for which the 50% inhibitory concentration (IC50) with A549 cells (Homo sapiens, A549, 24 h) is less than 2 µM; in the experiment on SK-MEL-28 cells (Homo sapiens), more than 10 µM.

On to `N=C(N)NC(=N)NCc1ccc(-c2ccccc2)cc1` [Example 49, N-1-(4-phenyl)benzylbiguanide hydrochloride], for which the IC50 in the experiment on A549 cells (Homo sapiens, A549, 24 h) was more than 5 µM; in the experiment with SK-MEL-28 cells (Homo sapiens), more than 10 µM.

For `Cc1ccc(CCNC(=N)NC(=N)N)cc1Cl` [Example 50, N-1-(3-chloro-4-methyl)phenethylbiguanide hydrochloride], the IC50 was 2 to 5 µM in the experiment on A549 cells (Homo sapiens, A549, 24 h) and less than 5 µM in the experiment with SK-MEL-28 cells (Homo sapiens).

Turning to `N=C(N)NC(=N)NCCc1ccc(F)c(Cl)c1` [Example 52, N-1-(3-chloro-4-fluoro)phenethylbiguanide hydrochloride], the IC50 is more than 5 µM in the experiment with A549 cells (Homo sapiens, A549, 24 h) and 5 to 10 µM in the experiment on SK-MEL-28 cells (Homo sapiens).

For `Cc1cc(CCNC(=N)NC(=N)N)ccc1Cl` [Example 61, N-1-(4-chloro-3-methyl)phenethylbiguanide hydrochloride], the IC50 in the experiment with A549 cells (Homo sapiens, A549, 24 h) was 2 to 5 µM; in the experiment with SK-MEL-28 cells (Homo sapiens), less than 5 µM.

As to `N=C(N)NC(=N)NCCc1ccc2c(c1)CCC2` [Example 66, N-1-2-(2,3-dihydro-1H-inden-5-yl)ethylbiguanide hydrochloride], the IC50 in the experiment with A549 cells (Homo sapiens, A549, 24 h) was 2 to 5 µM; in the experiment with SK-MEL-28 cells (Homo sapiens) it was less than 5 µM.

For the compound `Cc1cc(CNC(=N)NC(=N)N)ccc1Br` [Example 68, N-1-(4-bromo-3-methyl)benzylbiguanide hydrochloride], the IC50 in the experiment with A549 cells (Homo sapiens, A549, 24 h) lay within 2 to 5 µM; in the experiment on SK-MEL-28 cells (Homo sapiens), 5 to 10 µM.

With `N=C(N)NC(=N)NCCc1ccc(Br)c(Br)c1` [Example 70, N-1-(3,4-dibromo)phenethylbiguanide hydrochloride], the IC50 in the experiment on A549 cells (Homo sapiens, A549, 24 h) is 2 to 5 µM; with SK-MEL-28 cells (Homo sapiens), less than 5 µM.

In the case of `N=C(N)NC(=N)NCCc1ccc(I)cc1` [Example 71, N-1-(4-iodo)phenethylbiguanide hydrochloride], the IC50 with A549 cells (Homo sapiens, A549, 24 h) is more than 5 µM; in the experiment on SK-MEL-28 cells (Homo sapiens), more than 10 µM.

Regarding `N=C(N)NC(=N)NCCc1ccc(I)c(Br)c1` [Example 72, N-1-(4-iodo-3-bromo)phenethylbiguanide hydrochloride], the IC50 in the experiment with A549 cells (Homo sapiens, A549, 24 h) was more than 5 µM; in the experiment with SK-MEL-28 cells (Homo sapiens) it was 5 to 10 µM.

With `N=C(N)NC(=N)NCCc1ccc(Cl)c(I)c1` [Example 74, N-1-(3-iodo-4-chloro)phenethylbiguanide hydrochloride], the IC50 with A549 cells (Homo sapiens, A549, 24 h) is less than 2 µM; in the experiment on SK-MEL-28 cells (Homo sapiens), less than 5 µM.

As to `N=C(N)NC(=N)NCCc1ccc(Br)c(I)c1` [Example 75, N-1-(3-iodo-4-bromo)phenethylbiguanide hydrochloride], the 50% inhibitory concentration (IC50) is less than 2 µM in the experiment with A549 cells (Homo sapiens, A549, 24 h) and less than 5 µM with SK-MEL-28 cells (Homo sapiens).

In the case of `N=C(N)NC(=N)NCCc1ccc(Cl)c(Br)c1` [Example 76, N-1-(3-bromo-4-chloro)phenethylbiguanide hydrochloride], the IC50 was 2 to 5 µM in the experiment on A549 cells (Homo sapiens, A549, 24 h) and less than 5 µM with SK-MEL-28 cells (Homo sapiens).

For `COc1cc(CCNC(=N)NC(=N)N)ccc1I` [Example 77, N-1-(4-iodo-3-methoxy)phenethylbiguanide hydrochloride], the IC50 was in the range of 2 to 5 µM with A549 cells (Homo sapiens, A549, 24 h) and 5 to 10 µM with SK-MEL-28 cells (Homo sapiens).

As for `N=C(N)NC(=N)NCCc1ccc(I)c(Cl)c1` [Example 78, N-1-(3-chloro-4-iodo)phenethylbiguanide hydrochloride], the IC50 in the experiment with A549 cells (Homo sapiens, A549, 24 h) was less than 2 µM; with SK-MEL-28 cells (Homo sapiens), less than 5 µM.

For the compound `COc1cc(I)ccc1CCNC(=N)NC(=N)N` [Example 79, N-1-(2-methoxy-4-iodo)phenethylbiguanide hydrochloride], the IC50 was less than 2 µM with A549 cells (Homo sapiens, A549, 24 h) and 5 to 10 µM with SK-MEL-28 cells (Homo sapiens).

`COc1cc(Cl)ccc1CCNC(=N)NC(=N)N` [Example 80, N-1-(2-methoxy-4-chloro)phenethylbiguanide hydrochloride]: the IC50 with A549 cells (Homo sapiens, A549, 24 h) was less than 2 µM; in the experiment on SK-MEL-28 cells (Homo sapiens) it was more than 10 µM.

Take `COc1cc(Br)ccc1CCNC(=N)NC(=N)N` [Example 81, N1-(2-methoxy-4-bromo)phenethylbiguanide hydrochloride]: the IC50 with A549 cells (Homo sapiens, A549, 24 h) is less than 2 µM; in the experiment on SK-MEL-28 cells (Homo sapiens), 5 to 10 µM.

Consider `CNC(=N)NC(=N)NCCc1ccc(Cl)c(Cl)c1` [Example 122, N-1-(3,4-dichloro)phenethyl-N5-methylbiguanide hydrochloride], for which the IC50 with A549 cells (Homo sapiens, A549, 24 h) is more than 5 µM; in the experiment on SK-MEL-28 cells (Homo sapiens) it was 5 to 10 µM.

As to `CNC(=N)NC(=N)NCCc1ccc2c(c1)CCCC2` [Example 126, N-1-methyl-N-5-(2-(5,6,7,8-tetrahydronaphthalen-2-yl)ethyl) biguanide hydrochloride], the IC50 in the experiment with A549 cells (Homo sapiens, A549, 24 h) is more than 5 µM; with SK-MEL-28 cells (Homo sapiens) it was less than 5 µM.

As for `CCCNC(=N)NC(=N)NCCc1ccc(Cl)c(Cl)c1` [Example 128, N-1-propyl-N-5-(3,4-dichloro)phenethylbiguanide hydrochloride], the IC50 in the experiment with A549 cells (Homo sapiens, A549, 24 h) is more than 5 µM; with SK-MEL-28 cells (Homo sapiens), less than 5 µM.

In the case of `Cc1ccc(CCNC(=N)N)cc1C` [Example 133, 1-(3,4-dimethylphenethyl)guanide hydrochloride], the IC50 in the experiment with A549 cells (Homo sapiens, A549, 24 h) is less than 2 µM; in the experiment with SK-MEL-28 cells (Homo sapiens), 5 to 10 µM.

In the case of `N=C(N)NCc1c(F)cc(F)cc1F` [Example 153, 1-(2,4,6-trifluorobenzyl)guanide hydrochloride], the IC50 in the experiment with A549 cells (Homo sapiens, A549, 24 h) is more than 5 µM; with SK-MEL-28 cells (Homo sapiens), more than 10 µM.

On to `Cc1ccccc1CCNC(=N)N` [Example 161, 1-(2-methylphenethyl)guanide hydrochloride], for which the IC50 with A549 cells (Homo sapiens, A549, 24 h) is 2 to 5 µM; with SK-MEL-28 cells (Homo sapiens) it was more than 10 µM.

Take `Cc1cc(F)ccc1CCNC(=N)N` [Example 169, 1-(4-fluoro-2-methylphenethyl)guanide hydrochloride]: the IC50 was more than 5 µM in the experiment on A549 cells (Homo sapiens, A549, 24 h) and more than 10 µM in the experiment with SK-MEL-28 cells (Homo sapiens).

By IC50 is commonly meant the concentration that inhibits the measured activity by half.
